Like-named read-outs stand apart in the source and are kept apart here.
Experiments:
[1] = test system: L. major promastigotes; experiment: microbe, parasite or virus in culture; type: cell-based, Leishmania major; conditions: for EC50: Leishmania major, read-out: Leishmania Promast pEC50 (converted); for Leishmania Promast pEC50: L. major promastigotes
[2] = test system: T. brucei cells; experiment: microbe, parasite or virus in culture; type: cell-based, Trypanosoma brucei; conditions: for EC50: Trypanosoma brucei, read-out: T. brucei pEC50 (within 46%) (converted); for T. brucei pEC50 (within 46%): purchased inhibitors, Table 3
[3] = test system: L. major intracellular amastigotes; experiment: microbe, parasite or virus in culture; type: cell-based, Leishmania major; conditions: for EC50: Leishmania major, read-out: Leishmania Amast pEC50 (converted); for Leishmania Amast pEC50: L. major intracellular amastigotes
[4] = test system: P. falciparum C235; experiment: microbe, parasite or virus in culture; type: cell-based, Plasmodium falciparum; conditions: for EC50: Plasmodium falciparum, read-out: P. falciparum C235 pEC50 (converted)
[5] = test system: HepG2 cells; experiment: HepG2 host cell toxicity assay; type: cell-based; conditions: HepG2, purchased inhibitors, Table 3
[6] = test system: P. falciparum W2; experiment: microbe, parasite or virus in culture; type: cell-based, Plasmodium falciparum; conditions: for EC50: Plasmodium falciparum, W2, read-out: P. falciparum W2 pEC50 (converted)
[7] = test system: T. cruzi intracellular amastigotes (Tulahuen strain); experiment: microbe, parasite or virus in culture; type: cell-based, Trypanosoma cruzi; conditions: for EC50: Trypanosoma cruzi, TULAHUEN, read-out: T. cruzi pEC50 (μM) (within 21%) (converted); for T. cruzi pEC50 (within 21%): intracellular amastigotes, Tulahuen strain
[8] = test system: 3T3; experiment: 3T3 host cell toxicity; type: cell-based
[9] = test system: P. falciparum D6; experiment: microbe, parasite or virus in culture; type: cell-based, Plasmodium falciparum; conditions: for EC50: Plasmodium falciparum, D6, read-out: P. falciparum D6 pEC50 (converted); for P. falciparum D6 pEC50: D6 strain
[10] = HAT patients; cited from earlier work

Row | SMILES | EC50 [1] | EC50 [3] | EC50 [4] | EC50 [6] | EC50 [9] | Leishmania Promast pEC50 [1] | T. brucei pEC50 (within 46%) [2] | Leishmania Amast pEC50 [3] | P. falciparum C235 pEC50 [4] | P. falciparum W2 pEC50 [6] | T. cruzi pEC50 (within 21%) [7] | P. falciparum D6 pEC50 [9] | EC50 [2] | host cell tox HepG2 pTC50 [5] | EC50 [7] | host cell tox 3T3 pTC50 [8] | T. brucei proliferation activity (in words; active = pEC50 ≥ 6) ([2]; listed as NVP-TAE684) | mortality rate of melarsoprol treatment [10] | T. brucei proliferation activity (in words; active = pEC50 ≥ 6) [2]
1 | Nc1nc(Nc2ccc(S(N)(=O)=O)cc2)nn1C(=O)c1c(F)cccc1F [NEU-971, JNJ-77066218] | > 25100 nM | > 15800 nM | 1260 nM | 1000 nM | 2000 nM |  |  |  |  |  |  |  | 316 nM | 5.2 | > 50.1 µM | <4 |  |  | 
2 | CCc1cc2c(cc1N1CCC(N3CCOCC3)CC1)C(C)(C)c1[nH]c3cc(C#N)ccc3c1C2=O [NEU-974, CH542480210] | 126 nM | > 15800 nM | > 20000 nM | > 20000 nM | 3980 nM |  |  |  |  |  |  |  | > 3160 nM | <4.4 | > 50.1 µM | <4 |  |  | 
3 | Nc1ncnc2c1c(-c1cccc(OCc3ccccc3)c1)cn2[C@H]1C[C@@H](CN2CCC2)C1 [NEU-967, NVP-AEW5414] | 100 nM | 3980 nM | 1260 nM | 1000 nM | 1260 nM |  |  |  |  |  |  |  | 2000 nM | 5.5 | 3.98 µM | 4.8 |  |  | 
4 | CCc1cnn2c(NCc3ccc[n+]([O-])c3)cc(N3CCCC[C@H]3CCO)nc12 [NEU-975, dinaciclib] |  |  |  |  |  |  |  |  |  |  |  |  |  | <4.4 |  | <4 |  |  | 
5 | CCCCOc1c(C(=O)c2c(F)cc(C)cc2F)c[nH]c2nncc1-2 [NEU-968, BMS-2652465] | 251 nM | > 15800 nM | 12600 nM | 10000 nM | 15800 nM |  |  |  |  |  |  |  | 501 nM | <4.4 | > 50.1 µM | <4 |  |  | 
6 | CCc1cc(Nc2nccc(-c3c(-c4ccc(OC)c(C(=O)Nc5c(F)cccc5F)c4)nc4ccccn34)n2)c(OC)cc1N1CCC(N2CCN(S(C)(=O)=O)CC2)CC1 [NEU-970, GSK1904529A7] |  |  |  |  |  | <4.9 | 5.9 | 5.5 | 6.9 | 7.0 | < 4.3 | 6.8 |  | <4.4 |  | <4 |  |  | 
7 | O=C1NC(=O)C(c2ccccc2[N+](=O)[O-])=C1Nc1ccc(O)c(Cl)c1 [NEU-986, SB 41528622] |  |  |  |  |  |  |  |  |  |  |  |  |  | <4.4 |  | 4.2 |  |  | 
8 | COc1cc(N2CCC(N3CCN(C)CC3)CC2)ccc1Nc1ncc(Cl)c(Nc2ccccc2S(=O)(=O)C(C)C)n1 [NEU-844, TAE684] | 316 nM | 1260 nM | 501 nM | 398 nM | 501 nM |  |  |  |  |  |  |  | 100 nM | 5.3 | 5.01 µM | 4.6 | potent T. brucei proliferation inhibitors |  | 
9 | C[C@]1(O)C[C@@H](c2nc(-c3ccc4ccc(-c5ccccc5)nc4c3)c3c(N)nccn32)C1 [NEU-976, linsitinib] | 7940 nM | > 15800 nM | 501 nM |  | 501 nM |  |  |  |  |  |  |  | > 3160 nM | 4.5 | 10 µM | <4 |  |  | 
10 | COc1cc(OC)c(/C=C/S(=O)(=O)Cc2ccc(OC)c(NCC(=O)O)c2)c(OC)c1 [NEU-973, ON-019109] | > 25100 nM | > 15800 nM | > 20000 nM | > 20000 nM | > 20000 nM |  |  |  |  |  |  |  | > 3160 nM | <4.4 | > 50.1 µM | <4 |  |  | 
11 | CNC(=O)c1nn(C)c2c1C(C)(C)Cc1cnc(Nc3ccc(N4CCN(C)CC4)cc3)nc1-2 [NEU-969, PHA-8481256] | 316 nM | 5010 nM | 6310 nM | 7940 nM | 6310 nM |  |  |  |  |  |  |  | 25.1 nM | 5.0 | 0.0398 µM | <4 |  |  | 
12 | COc1ccc2c(c1)[nH]c1c(C)nccc12 [NEU-1049, harmine] | 1260 nM | 1260 nM | > 20000 nM | > 20000 nM | > 20000 nM |  |  |  |  |  |  |  | > 3160 nM | <5.1 | 15.8 µM | <4 |  |  | 
13 | Nc1nc(N)nc(Nc2ccc([As]3SCC(CO)S3)cc2)n1 (centres unmarked) [melarsoprol] |  |  |  |  |  |  |  |  |  |  |  |  |  |  |  |  |  | ≥ 5% | 
14 | Nc1nc(NCCNc2ncc(-c3ncc[nH]3)c(-c3ccc(Cl)cc3Cl)n2)ccc1[N+](=O)[O-] [NEU-978, CHIR-9801414] |  |  |  |  |  | 5.2 | <5.5 | <4.8 | <4.7 | <4.7 | < 4.3 | <4.7 |  | 4.8 |  | <4 |  |  | 
15 | CC[C@H](CO)Nc1nc(NCc2ccccc2)c2ncn(C(C)C)c2n1 [NEU-977, roscovitine] |  |  |  |  |  |  |  |  |  |  |  |  |  | 4.5 |  | <4 |  |  | 
16 | C[C@@H](Oc1cc(-c2cnn(C3CCNCC3)c2)cnc1N)c1c(Cl)ccc(F)c1Cl [NEU-838, crizotinib] | 631 nM | 1580 nM | 100 nM | 39.8 nM | 794 nM |  |  |  |  |  |  |  | 398 nM | 5.4 | 7.94 µM | 4.8 |  |  | potent T. brucei proliferation inhibitors

Second part, led by results:

Row | EC50 [1] | EC50 [3] | EC50 [4] | EC50 [6] | EC50 [9] | Leishmania Promast pEC50 [1] | T. brucei pEC50 (within 46%) [2] | Leishmania Amast pEC50 [3] | P. falciparum C235 pEC50 [4] | P. falciparum W2 pEC50 [6] | T. cruzi pEC50 (within 21%) [7] | P. falciparum D6 pEC50 [9] | SMILES | EC50 [2] | host cell tox HepG2 pTC50 [5] | EC50 [7] | host cell tox 3T3 pTC50 [8] | T. brucei proliferation activity (in words; active = pEC50 ≥ 6) ([2]; listed as NVP-TAE684) | mortality rate of melarsoprol treatment [10] | T. brucei proliferation activity (in words; active = pEC50 ≥ 6) [2]
17 | 316 nM | > 15800 nM | 20000 nM | 25100 nM | 25100 nM |  |  |  |  |  |  |  | O=c1sn(-c2cccc3ccccc23)c(=O)n1Cc1ccccc1 [NEU-991, tideglusib] | > 3160 nM | <4.4 | 20 µM | 4.1 |  |  | 
18 | > 25100 nM | > 15800 nM | 2000 nM | 3160 nM | 5010 nM |  |  |  |  |  |  |  | CC(C)(C)c1cnc(CSc2cnc(NC(=O)C3CCNCC3)s2)o1 [NEU-984, SNS-03219, 20] | 126 nM | <4.4 | > 50.1 µM | <4 |  |  | 
19 | 2510 nM | > 15800 nM | > 20000 nM | > 20000 nM | > 20000 nM |  |  |  |  |  |  |  | Cn1cc(C2=C(c3ccc(Cl)cc3Cl)C(=O)NC2=O)c2ccccc21 [NEU-990, SB 21676322] | > 3160 nM | <4.4 | > 50.1 µM | <4 |  |  | 
20 | 398 nM | 2510 nM | 1260 nM | 1000 nM | 1260 nM |  |  |  |  |  |  |  | Cc1ncc(-c2ccnc(Nc3ccc(S(C)(=O)=O)cc3)n2)n1C(C)C [NEU-985, AZD543821] | 31.6 nM | 4.9 | 1.58 µM | <4 |  |  | 
21 | 1580 nM | 7940 nM | 158 nM | 158 nM | 158 nM |  |  |  |  |  |  |  | CC[C@@H]1C(=O)N(C)c2cnc(Nc3ccc(C(=O)N[C@H]4CC[C@H](N5CCN(CC6CC6)CC5)CC4)cc3OC)nc2N1C(C)C [NEU-979, volasertib] | > 3160 nM | 5.5 | 12.6 µM | 4.6 |  |  | 
22 | > 25100 nM | > 15800 nM | 2510 nM | 2510 nM | 2000 nM |  |  |  |  |  |  |  | CC(C)CC(=O)Nc1[nH]nc2c1CN(C(=O)C1CCN(C)CC1)C2(C)C [NEU-1007, PHA-79388727] | 2000 nM | <4.4 | > 50.1 µM | <4 |  |  | 
23 | 3980 nM | 7940 nM | 12.6 nM | 10 nM | 20 nM |  |  |  |  |  |  |  | CC[C@@H]1C(=O)N(C)c2cnc(Nc3ccc(C(=O)NC4CCN(C)CC4)cc3OC)nc2N1C1CCCC1 [NEU-980, BI 253616] | 631 nM | 5.6 | 20 µM | 4.5 |  |  | 
24 | 398 nM | 3160 nM | 1580 nM | 2000 nM | 2000 nM |  |  |  |  |  |  |  | CN1CC[C@H](c2c(O)cc(O)c3c(=O)cc(-c4ccccc4Cl)oc23)[C@H](O)C1 [NEU-987, flavopiridol] | 158 nM | < 4.4 | 12.6 µM | < 4 |  |  | 
25 |  |  |  |  |  | 4.7 | 6.0 | <4.8 | 5.1 | 4.7 | < 4.3 | 5.0 | Nc1cccc(-c2cc3c(Oc4cccc(O)c4)ncnc3[nH]2)c1 [NEU-989, TWS11925] |  | <4.4 |  | 4.4 |  |  | 
26 | > 25100 nM | > 15800 nM | 316 nM | 794 nM | 1260 nM |  |  |  |  |  |  |  | O=C(NC1CCNCC1)c1n[nH]cc1NC(=O)c1c(Cl)cccc1Cl [NEU-982, AT751918] | 316 nM | <4.4 | 1.26 µM | <4 |  |  | 
